Laboratory results published in ChEMBL document CHEMBL1201862, “PubChem BioAssay data set” (2004).
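Dose response: 5 concentrations. Exposure: 48 h. Format: 96-well plates. Endpoint: linear interpolation; highest concentration if not reached. GI50 marks 50% less growth.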 The source made the active and inactive calls. No stated cut-off is given here; in the data, active = GI50 up to about 1.1 µM and inactive = higher.

Tests used:
Test in all cases: DTP human tumour cell line panel, 48 h
HCT-15 = system: HCT-15
CAKI-1 = system: CAKI-1
HCT-116 = system: HCT-116
NCI-H23 = system: NCI-H23
T47D = system: T47D
U-251 = system: U-251
UACC-62 = system: UACC-62
M14 = system: M14
CCRF-CEM = system: CCRF-CEM
NCI/ADR-RES = system: NCI/ADR-RES
MDA-N = system: MDA-N
Malme-3M = system: Malme-3M
HCC 2998 = system: HCC 2998
A498 = system: A498
EKVX = system: EKVX
BT-549 = system: BT-549
SF-268 = system: SF-268
PC-3 = system: PC-3
RPMI-8226 = system: RPMI-8226
SNB-75 = system: SNB-75
ACHN = system: ACHN
HL-60 = system: HL-60
MDA-MB-435 = system: MDA-MB-435
HOP-92 = system: HOP-92
K562 = system: K562
SW-620 = system: SW-620
UACC-257 = system: UACC-257
LOX IMVI = system: LOX IMVI
NCI-H226 = system: NCI-H226
SN12C = system: SN12C
HT-29 = system: HT-29
NCI-H460 = system: NCI-H460
OVCAR-8 = system: OVCAR-8
NCI-H522 = system: NCI-H522
HOP-62 = system: HOP-62
MCF7 = system: MCF7
Hs-578T = system: Hs-578T
786-0 = system: 786-0
SNB-19 = system: SNB-19
SK-MEL-28 = system: SK-MEL-28
SK-MEL-2 = system: SK-MEL-2
SF-295 = system: SF-295
MOLT-4 = system: MOLT-4
MDA-MB-231 = system: MDA-MB-231
A549 = system: A549
KM12 = system: KM12
OVCAR-4 = system: OVCAR-4
TK-10 = system: TK-10
COLO 205 = system: COLO 205
IGROV-1 = system: IGROV-1
DU-145 = system: DU-145
SK-OV-3 = system: SK-OV-3
UO-31 = system: UO-31
RXF 393 = system: RXF 393
OVCAR-5 = system: OVCAR-5
SK-MEL-5 = system: SK-MEL-5
OVCAR-3 = system: OVCAR-3

In the case of `Cc1nnc(N)nc1C/C=C/C(C)Sc1ccc(Cl)cc1` (stereo unspecified), the GI50 (HCT-15) is reported as 12.8 µM, the GI50 (CAKI-1) is reported as 7.94 µM (inactive) and the GI50 (HCT-116) is reported as 5.74 µM (inactive). The GI50 (NCI-H23) was 5.47 µM (inactive), the GI50 (T47D) was 8.07 µM (inactive) and the GI50 (U-251) was 8.93 µM (inactive). The GI50 (UACC-62) was 5.33 µM (inactive), the GI50 (M14) was 7.69 µM (inactive) and the GI50 (CCRF-CEM) was 2.33 µM (inactive). The GI50 (NCI/ADR-RES) was 9.79 µM (inactive), the GI50 (MDA-N) was 14.4 µM (inactive) and the GI50 (Malme-3M) was 13.2 µM (inactive). The GI50 (HCC 2998) was 14.4 µM (inactive), the GI50 (A498) was 6.32 µM (inactive) and the GI50 (EKVX) was 4.61 µM (inactive). For the same compound, the GI50 (BT-549) was 5.22 µM (inactive), the GI50 (SF-268) was 3.78 µM (inactive) and the GI50 (PC-3) was 4.35 µM (inactive). The GI50 (RPMI-8226) was > 21.7 µM (inactive), the GI50 (SNB-75) was 6.01 µM (inactive) and the GI50 (ACHN) was 7.46 µM (inactive). For the same compound, the GI50 (HL-60) was 3.89 µM (inactive), the GI50 (MDA-MB-435) was 7.73 µM (inactive) and the GI50 (HOP-92) was 11.4 µM (inactive). The GI50 (K562) was 9.73 µM (inactive), the GI50 (SW-620) was 9.04 µM (inactive) and the GI50 (UACC-257) was 10.8 µM (inactive). The GI50 (LOX IMVI) was 4.4 µM (inactive), the GI50 (NCI-H226) was 2.04 µM (inactive) and the GI50 (SN12C) was 11.1 µM (inactive). The GI50 (HT-29) was 16 µM (inactive), the GI50 (NCI-H460) was 7.55 µM (inactive) and the GI50 (OVCAR-8) was 16.5 µM (inactive). The GI50 (NCI-H522) was 4 µM (inactive), the GI50 (HOP-62) was 6.47 µM (inactive) and the GI50 (MCF7) was 5.28 µM (inactive). For the same compound, the GI50 (Hs-578T) was 7.14 µM (inactive), the GI50 (786-0) was 8.41 µM (inactive) and the GI50 (SNB-19) was 5.58 µM (inactive). For the same compound, the GI50 (SK-MEL-28) was 12.3 µM (inactive), the GI50 (SK-MEL-2) was 12.8 µM (inactive) and the GI50 (SF-295) was 2.77 µM (inactive). The GI50 (MOLT-4) was 3.7 µM (inactive), the GI50 (MDA-MB-231) was 20.1 µM (inactive) and the GI50 (A549) was 7 µM (inactive). The GI50 (KM12) was 4.7 µM (inactive), the GI50 (OVCAR-4) was 10.1 µM (inactive) and the GI50 (TK-10) was 15 µM (inactive). For the same compound, the GI50 (COLO 205) was 19.1 µM (inactive), the GI50 (IGROV-1) was 3.41 µM (inactive) and the GI50 (DU-145) was 11.9 µM (inactive). The GI50 (SK-OV-3) was 4.52 µM (inactive), the GI50 (UO-31) was 3.49 µM (inactive) and the GI50 (RXF 393) was 7.28 µM (inactive). For the same compound, the GI50 (OVCAR-5) was 10.9 µM (inactive) and the GI50 (SK-MEL-5) was 6.08 µM (inactive).
With `O=C1/C(=C/c2cccc([N+](=O)[O-])c2)N=C(c2ccccc2)N1c1ccc2c(c1)Sc1cc(N3C(=O)/C(=C/c4cccc([N+](=O)[O-])c4)N=C3c3ccccc3)ccc1N2` the GI50 (HCT-15) was over 100 µM, the GI50 (CAKI-1) was 22.4 µM (inactive) and the GI50 (HCT-116) was 42.8 µM (inactive). The GI50 (NCI-H23) was 30.8 µM (inactive), the GI50 (T47D) was 25.4 µM (inactive) and the GI50 (U-251) was 24.7 µM (inactive). For the same compound, the GI50 (UACC-62) was 17 µM (inactive), the GI50 (M14) was 32.9 µM (inactive) and the GI50 (CCRF-CEM) was 16.9 µM (inactive). The GI50 (NCI/ADR-RES) was 34.1 µM (inactive), the GI50 (MDA-N) was 19.3 µM (inactive) and the GI50 (Malme-3M) was 21.4 µM (inactive). For the same compound, the GI50 (HCC 2998) was > 100 µM (inactive), the GI50 (A498) was 23.6 µM (inactive) and the GI50 (EKVX) was 25.4 µM (inactive). For the same compound, the GI50 (BT-549) was 23 µM (inactive), the GI50 (SF-268) was 20.1 µM (inactive) and the GI50 (OVCAR-3) was 12.6 µM (inactive). For the same compound, the GI50 (PC-3) was 22 µM (inactive), the GI50 (RPMI-8226) was 26.7 µM (inactive) and the GI50 (SNB-75) was 16.7 µM (inactive). For the same compound, the GI50 (ACHN) was 30.9 µM (inactive), the GI50 (HL-60) was 21.6 µM (inactive) and the GI50 (MDA-MB-435) was 18.7 µM (inactive). For the same compound, the GI50 (HOP-92) was 28.1 µM (inactive), the GI50 (K562) was 27.3 µM (inactive) and the GI50 (SW-620) was 31.2 µM (inactive). For the same compound, the GI50 (UACC-257) was 18.4 µM (inactive), the GI50 (LOX IMVI) was 27 µM (inactive) and the GI50 (HT-29) was 91.8 µM (inactive). For the same compound, the GI50 (NCI-H460) was 41.9 µM (inactive), the GI50 (OVCAR-8) was 29.2 µM (inactive) and the GI50 (NCI-H522) was 19.1 µM (inactive). For the same compound, the GI50 (HOP-62) was 20 µM (inactive), the GI50 (MCF7) was 19.2 µM (inactive) and the GI50 (Hs-578T) was 30.2 µM (inactive). For the same compound, the GI50 (786-0) was 21 µM (inactive), the GI50 (SNB-19) was 21.2 µM (inactive) and the GI50 (SK-MEL-28) was 47.9 µM (inactive). The GI50 (SK-MEL-2) was 20 µM (inactive), the GI50 (SF-295) was 14 µM (inactive) and the GI50 (MOLT-4) was 36.9 µM (inactive). For the same compound, the GI50 (MDA-MB-231) was 29.1 µM (inactive), the GI50 (A549) was 53 µM (inactive) and the GI50 (KM12) was > 100 µM (inactive). For the same compound, the GI50 (OVCAR-4) was 18.7 µM (inactive), the GI50 (TK-10) was 19.6 µM (inactive) and the GI50 (COLO 205) was 40.9 µM (inactive). For the same compound, the GI50 (IGROV-1) was 20.1 µM (inactive), the GI50 (DU-145) was 36.7 µM (inactive) and the GI50 (SK-OV-3) was 16.4 µM (inactive). For the same compound, the GI50 (UO-31) was 53.3 µM (inactive), the GI50 (RXF 393) was 21.6 µM (inactive) and the GI50 (OVCAR-5) was 18.5 µM (inactive). For the same compound, the GI50 (SK-MEL-5) was 17.3 µM (inactive).
